Results reported in patent US10918623B2, “Methods of treating influenza” (Biotron Limited, priority 2017, dated 2021).

Assays:
Influenza A (H1N1) = assay type: cell-based
Influenza A (H3N2) = assay type: cell-based
[1] = test system: PR8 wild-type influenza A virus; experiment: microbe, parasite or virus in culture; assay type: cell-based; settings: PR8, MDCK
[2] = test system: SHIV-1SCVpu (ion channel sequence of HIV-1 Vpu); assay type: cell-based
SHIV-1PND2 = assay type: cell-based
MDCK cells = settings: dog
[3] = target: M2 viroporin of influenza A (Influenza A virus, UniProt P06821); settings: cited from earlier work
M2 viroporin of influenza A, sequence (P06821 whole entry, looked up): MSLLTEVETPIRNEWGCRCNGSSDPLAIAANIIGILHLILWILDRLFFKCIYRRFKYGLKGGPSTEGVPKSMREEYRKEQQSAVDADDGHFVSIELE

in vitro = settings: dog
influenza = settings: human, in vivo; cited from earlier work

Row | Structure (SMILES) | Comments (Influenza A (H1N1)) | Comments (Influenza A (H3N2)) | EC50 [1] | EC90 [1] | Virus released into the culture supernatant as measured by viral p27 protein [2] | Virus replication (SHIV-1PND2) | Toxic effects (no toxic effects up to) (MDCK cells) | Activity against the M2 viroporin of influenza A [3] | CC50 (in vitro) | Reduction of time to alleviation of symptoms of influenza (influenza)
1 | Cn1cc(-c2cccc3cc(C(=O)NC(=N)N)ccc23)cn1 [BIT225, N-carbamimidoyl-5-(1-methyl-1H-pyrazol-4-yl)-2-naphthamide] | Active | Active | ~10 µM | 12 µM | reduced virus released | does not significantly reduce virus replication | > 100 µM | only limited activity | 32 µM | 
2 | CCOC(=O)C1=C[C@@H](OC(CC)CC)[C@H](NC(C)=O)[C@@H](N)C1 [oseltamivir] |  |  |  |  |  |  |  |  |  | 16.8 h
